Measurements reported in paper PMC6838683, “Discovery of Human Signaling Systems: Pairing Peptides to G Protein-Coupled Receptors” (Cell, 2019).
Residues, ends and D or L forms follow the SMILES beside them.

Legend:
BB3 [1] = target: T1, BB3 (Homo sapiens, UniProt P32247); assay: Dynamic mass redistribution (DMR), concentration-response; assay type: cell-based
T1 construct: hIL-2Ra signal peptide (N); expressed in transfected cells
T1 sequence (P32247 2-399 limits assumed): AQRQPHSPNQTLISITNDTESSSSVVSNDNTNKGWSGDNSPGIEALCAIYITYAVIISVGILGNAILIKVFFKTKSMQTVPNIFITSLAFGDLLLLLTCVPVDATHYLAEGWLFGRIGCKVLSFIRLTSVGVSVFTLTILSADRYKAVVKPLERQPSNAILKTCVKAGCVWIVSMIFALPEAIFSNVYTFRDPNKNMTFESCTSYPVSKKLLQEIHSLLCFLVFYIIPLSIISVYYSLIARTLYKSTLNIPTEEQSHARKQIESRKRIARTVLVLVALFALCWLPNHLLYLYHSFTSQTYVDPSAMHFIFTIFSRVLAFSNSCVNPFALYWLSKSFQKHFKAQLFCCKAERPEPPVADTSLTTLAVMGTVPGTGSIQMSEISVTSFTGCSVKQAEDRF

BB3 [2] = target: T1, BB3; assay: Real-time receptor internalization (TR-FRET), concentration-response; assay type: cell-based
BB3 [3] = target: T2, BB3 (Homo sapiens, UniProt P32247); assay: β-arrestin recruitment (Tango), validation; assay type: cell-based
T2 construct: host or cells: HTLA cells (HEK293-derived)
T2 sequence (P32247 1-399): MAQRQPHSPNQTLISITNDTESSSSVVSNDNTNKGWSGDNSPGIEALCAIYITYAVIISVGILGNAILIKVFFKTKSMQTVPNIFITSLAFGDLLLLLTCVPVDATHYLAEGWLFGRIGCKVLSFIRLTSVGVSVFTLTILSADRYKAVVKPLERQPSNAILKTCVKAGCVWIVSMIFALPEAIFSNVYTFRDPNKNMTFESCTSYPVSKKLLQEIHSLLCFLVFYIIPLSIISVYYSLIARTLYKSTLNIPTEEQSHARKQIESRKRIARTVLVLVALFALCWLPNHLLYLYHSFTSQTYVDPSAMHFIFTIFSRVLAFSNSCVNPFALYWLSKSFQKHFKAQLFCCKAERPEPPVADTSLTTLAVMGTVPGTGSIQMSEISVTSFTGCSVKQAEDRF
Procedure: (§1) The peptide library was additionally screened against 120 GPCR targets in parallel, including all available orphan receptors and 27 known class A peptide receptors using the Tango assay platform ([Kroeze et al., 2015]). Briefly, HTLA cells (a HEK293 cell line stably expressing a tTA-dependent luciferase reporter and a β-arrestin2-TEV fusion gene) were plated 10,000 cells/well in poly-L-lysine–coated clear-bottom white 384-well plates in DMEM supplemented with 10% FBS, 100 U/ml penicillin and 100 μg/ml streptomycin, 2 μg/ml puromycin and 100 μg/ml hygromycin B. 24 hr later, cells were transfected with Tango GPCR constructs using the calcium phosphate method ([Jordan et al., 1996]). The next day, culture medium was changed to DMEM + 1% dFBS and 10 μM peptides were added for overnight stimulation. Bright-Glo solution (Promega) was incubated for 15–20 min at room temperature, and luminescence was counted using a Trilux luminescence counter (Wallac).
(§2) For subsequent peptide validation experiments using Tango assays, HTLA cells were transiently transfected in 10 cm dishes with the receptor of interest using polyethylenimine (PEI) ([Longo et al., 2013]). After 24 hr, 25,000 cells/well were plated in clear bottom, white-walled 384-well plates. Assays were performed as described above, with luminescence measured using an EnSpire 2300 Multimode plate reader (PerkinElmer). Luminescence counts were exported into Excel and were analyzed using GraphPad Prism 7.

BB3 [4] = target: T1, BB3; assay: IP1 accumulation (Gq/11), HTRF; assay type: cell-based; settings: BB3, mean, SEM and n
[5] = tested on: 120 GPCR targets, including all available orphan receptors and 27 known class A peptide receptors; assay: Peptide library screen, β-arrestin recruitment (Tango, fold change, 10 μM); assay type: cell-based, human; settings: repeat hitters of the peptide library screen; the value names the known receptor(s) confirmed in the β-arrestin recruitment (Tango) screen
Procedure, shortened: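 HTLA cells (HEK293 with tTA-dependent luciferase and β-arrestin2-TEV) transiently transfected with Tango GPCR constructs, then stimulated overnight with 10 μM peptides in 1% dFBS medium. Luciferase luminescence read after 15–20 min Bright-Glo incubation at room temperature.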

OPRK1 = target: T3, OPRK1 (Homo sapiens, UniProt P41145); assay: β-arrestin recruitment (Tango), known peptide receptors; assay type: cell-based; settings: mean
T3 construct: host or cells: HTLA cells (HEK293-derived)

GPR68 = assay: Repeat of proposed literature pairing (mass redistribution and/or internalization); assay type: cell-based, human; settings: target GPR68
NPY5 = target: T4, NPY5 (Homo sapiens, UniProt Q15761); assay: β-arrestin recruitment (Tango), known peptide receptors; assay type: cell-based; settings: NPY5R; Emax and pEC50 n.d.; n = 3
T4 construct: host or cells: HTLA cells (HEK293-derived)
T4 sequence (Q15761 1-445): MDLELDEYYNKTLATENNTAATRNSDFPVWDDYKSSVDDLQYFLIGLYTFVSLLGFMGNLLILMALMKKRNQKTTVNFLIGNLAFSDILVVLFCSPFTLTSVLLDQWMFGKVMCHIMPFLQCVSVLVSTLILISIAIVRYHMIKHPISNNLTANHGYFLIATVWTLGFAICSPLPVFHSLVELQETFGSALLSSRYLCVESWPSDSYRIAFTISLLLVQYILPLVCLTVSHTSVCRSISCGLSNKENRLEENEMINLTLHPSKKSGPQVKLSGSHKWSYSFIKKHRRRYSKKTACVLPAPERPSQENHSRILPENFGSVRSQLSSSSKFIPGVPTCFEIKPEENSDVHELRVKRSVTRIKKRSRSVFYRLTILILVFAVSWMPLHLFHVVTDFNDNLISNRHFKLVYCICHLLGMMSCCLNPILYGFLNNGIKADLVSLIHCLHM
Procedure: as §1, §2

GPR183 = target: T5, GPR183 (Homo sapiens, UniProt P32249); assay: β-arrestin recruitment (Tango), indicative pairing; assay type: cell-based; settings: mean, n = 3
T5 construct: host or cells: HTLA cells (HEK293-derived)

MLNR = target: T6, MLNR (Homo sapiens, UniProt O43193); assay: β-arrestin recruitment (Tango), known peptide receptors; assay type: cell-based; settings: endogenous ligand(s) included in peptide library
T6 construct: host or cells: HTLA cells (HEK293-derived)
From the text: (§3) Supplement mmc6.xlsx, sheet "Peptide GPCR controls" | column: Confirmed?

GPR161 = target: T7, GPR161 (Homo sapiens, UniProt Q8N6U8); assay: β-arrestin recruitment (Tango), indicative pairing; assay type: cell-based; settings: mean, n = 3
T7 construct: host or cells: HTLA cells (HEK293-derived)

NPS = assay: β-arrestin recruitment (Tango), known peptide receptors; assay type: cell-based, human; settings: NPS receptor, endogenous ligand(s) included in peptide library
From the text: as §3

NTSR2 = assay: as above; assay type: cell-based, human; settings: Neurotensin not cyclized
From the text: as §3

NTSR1 = assay: as above; assay type: cell-based, human; settings: Neurotensin not cyclized
From the text: (§4) Supplement mmc6.xlsx, sheet "Peptide GPCR controls" | column: Confirmed?; Notes

OPRL1 = assay: as above; assay type: cell-based, human; settings: endogenous ligand(s) included in peptide library
From the text: as §3

HCTR2 = assay: as above; assay type: cell-based, human; settings: endogenous ligand(s) included in peptide library
From the text: as §3

GPR55 = GPR55 (Homo sapiens, UniProt Q9Y2T6)
NPY4R = assay: β-arrestin recruitment (Tango), known peptide receptors; assay type: cell-based, human; settings: endogenous ligand(s) included in peptide library
From the text: as §3

GPR1 (PathHunter cells) = GPR1 (PathHunter cells) (UniProt P46091)
[6] = target: GPR1 (Tango construct) (human) (UniProt P46091)
PRRP = assay: β-arrestin recruitment (Tango), known peptide receptors; assay type: cell-based, human
From the text: as §4

human GPCRs = target: human GPCRs; set-up: method as in Guide to Pharmacology database; settings: receptor PRLHR (prlhr_human, P49683); max reported value; ref Guide to Pharmacology database; cited from earlier work
From the text: Supplement mmc1.xlsx, sheet "HumanGPCRLigands" | column: pKi_value; pKd_value; pEC50_value; pIC50_value

GPR17 = target: T8, GPR17 (Homo sapiens, UniProt Q13304); assay: β-arrestin recruitment (Tango), indicative pairing; assay type: cell-based; settings: mean, n = 3
T8 construct: host or cells: HTLA cells (HEK293-derived)

NPSR = target: T9, NPSR (Homo sapiens, UniProt Q6W5P4); assay: β-arrestin recruitment (Tango), known peptide receptors; assay type: cell-based; settings: mean, n = 3
T9 construct: host or cells: HTLA cells (HEK293-derived)
From the text: (§5) Supplement mmc7.xlsx, sheet "Peptide validation data" | column: Emax; pEC50

NOP (OPRL1) = target: T10, NOP (OPRL1) (Homo sapiens, UniProt P41146); assay: as above; assay type: cell-based; settings: mean, n = 3
T10 construct: host or cells: HTLA cells (HEK293-derived)
From the text: as §5

OPRD1 = target: T11, OPRD1 (Homo sapiens, UniProt P41143); assay: as above; assay type: cell-based; settings: mean, n = 3
T11 construct: host or cells: HTLA cells (HEK293-derived)
From the text: as §5

T10 sequence (P41146 whole entry): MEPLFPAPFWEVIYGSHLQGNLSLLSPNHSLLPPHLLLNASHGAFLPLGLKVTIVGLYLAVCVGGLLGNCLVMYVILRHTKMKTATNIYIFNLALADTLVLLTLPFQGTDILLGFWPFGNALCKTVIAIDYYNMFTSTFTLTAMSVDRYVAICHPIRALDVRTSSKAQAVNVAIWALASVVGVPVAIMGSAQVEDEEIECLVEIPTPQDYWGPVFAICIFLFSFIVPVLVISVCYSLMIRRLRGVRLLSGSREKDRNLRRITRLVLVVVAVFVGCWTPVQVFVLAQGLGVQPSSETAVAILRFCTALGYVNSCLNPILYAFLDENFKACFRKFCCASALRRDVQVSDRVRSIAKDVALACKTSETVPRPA
T11 sequence (P41143 whole entry): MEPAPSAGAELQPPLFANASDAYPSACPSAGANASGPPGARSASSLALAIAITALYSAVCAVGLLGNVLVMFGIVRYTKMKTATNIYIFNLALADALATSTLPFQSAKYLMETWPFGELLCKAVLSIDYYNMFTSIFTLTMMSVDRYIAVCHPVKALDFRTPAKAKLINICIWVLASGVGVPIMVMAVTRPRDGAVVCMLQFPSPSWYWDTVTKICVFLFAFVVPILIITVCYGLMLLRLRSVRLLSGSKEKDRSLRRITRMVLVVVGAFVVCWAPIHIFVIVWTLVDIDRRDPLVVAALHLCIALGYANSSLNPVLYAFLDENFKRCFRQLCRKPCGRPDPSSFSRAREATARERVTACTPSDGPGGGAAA
T5 sequence (P32249 whole entry): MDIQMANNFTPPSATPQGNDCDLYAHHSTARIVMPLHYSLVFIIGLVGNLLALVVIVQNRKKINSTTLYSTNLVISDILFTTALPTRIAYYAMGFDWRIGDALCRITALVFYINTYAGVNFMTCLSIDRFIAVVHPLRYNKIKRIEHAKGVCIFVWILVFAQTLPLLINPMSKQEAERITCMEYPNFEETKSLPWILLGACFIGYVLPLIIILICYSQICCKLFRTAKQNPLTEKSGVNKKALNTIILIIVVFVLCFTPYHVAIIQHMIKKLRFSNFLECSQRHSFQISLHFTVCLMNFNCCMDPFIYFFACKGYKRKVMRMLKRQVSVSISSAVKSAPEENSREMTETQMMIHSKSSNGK
T3 sequence (P41145 whole entry): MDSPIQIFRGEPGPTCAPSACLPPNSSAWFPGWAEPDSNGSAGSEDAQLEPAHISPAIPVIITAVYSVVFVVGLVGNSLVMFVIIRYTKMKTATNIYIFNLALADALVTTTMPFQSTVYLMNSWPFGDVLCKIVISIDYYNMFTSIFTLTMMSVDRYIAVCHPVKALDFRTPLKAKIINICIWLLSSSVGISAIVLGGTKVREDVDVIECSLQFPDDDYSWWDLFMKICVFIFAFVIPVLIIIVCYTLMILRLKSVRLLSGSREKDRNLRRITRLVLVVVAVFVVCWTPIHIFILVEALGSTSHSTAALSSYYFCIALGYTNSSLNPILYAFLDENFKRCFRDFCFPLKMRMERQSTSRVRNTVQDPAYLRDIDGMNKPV
T9 sequence (Q6W5P4 whole entry): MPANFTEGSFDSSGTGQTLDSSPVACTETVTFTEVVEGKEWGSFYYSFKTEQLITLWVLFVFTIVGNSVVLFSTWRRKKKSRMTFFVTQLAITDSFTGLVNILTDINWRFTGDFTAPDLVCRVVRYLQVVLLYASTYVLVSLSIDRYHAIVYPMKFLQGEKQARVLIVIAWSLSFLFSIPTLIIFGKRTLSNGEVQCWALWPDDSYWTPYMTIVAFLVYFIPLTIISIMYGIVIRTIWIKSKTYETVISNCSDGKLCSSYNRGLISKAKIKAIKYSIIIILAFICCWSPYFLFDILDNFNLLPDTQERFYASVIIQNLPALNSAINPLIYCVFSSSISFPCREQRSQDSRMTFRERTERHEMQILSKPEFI
T8 sequence (Q13304 whole entry): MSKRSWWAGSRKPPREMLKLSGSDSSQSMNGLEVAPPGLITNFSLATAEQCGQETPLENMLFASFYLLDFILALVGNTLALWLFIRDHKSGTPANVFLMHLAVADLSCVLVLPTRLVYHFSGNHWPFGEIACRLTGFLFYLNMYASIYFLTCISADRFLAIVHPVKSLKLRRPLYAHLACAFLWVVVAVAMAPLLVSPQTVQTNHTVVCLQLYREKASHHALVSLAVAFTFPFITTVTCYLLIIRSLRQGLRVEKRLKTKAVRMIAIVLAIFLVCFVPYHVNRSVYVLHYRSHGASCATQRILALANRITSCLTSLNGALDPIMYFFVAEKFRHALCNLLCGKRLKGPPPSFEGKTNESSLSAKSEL
T7 sequence (Q8N6U8 whole entry): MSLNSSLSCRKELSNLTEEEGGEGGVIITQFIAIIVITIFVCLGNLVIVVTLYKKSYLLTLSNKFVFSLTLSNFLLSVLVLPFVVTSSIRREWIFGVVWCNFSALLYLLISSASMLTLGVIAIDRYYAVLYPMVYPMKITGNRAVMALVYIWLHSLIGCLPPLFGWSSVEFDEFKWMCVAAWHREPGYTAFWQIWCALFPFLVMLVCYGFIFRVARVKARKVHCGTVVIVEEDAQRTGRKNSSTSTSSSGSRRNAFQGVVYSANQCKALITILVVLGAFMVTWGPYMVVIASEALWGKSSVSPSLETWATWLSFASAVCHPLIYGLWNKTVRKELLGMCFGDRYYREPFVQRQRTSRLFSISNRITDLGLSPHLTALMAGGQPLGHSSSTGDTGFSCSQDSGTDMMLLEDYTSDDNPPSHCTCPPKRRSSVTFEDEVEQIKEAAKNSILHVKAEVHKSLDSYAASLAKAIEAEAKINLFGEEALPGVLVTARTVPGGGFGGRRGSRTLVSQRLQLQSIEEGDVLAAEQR
Chain of GPR1 (PathHunter cells) (P46091 whole entry): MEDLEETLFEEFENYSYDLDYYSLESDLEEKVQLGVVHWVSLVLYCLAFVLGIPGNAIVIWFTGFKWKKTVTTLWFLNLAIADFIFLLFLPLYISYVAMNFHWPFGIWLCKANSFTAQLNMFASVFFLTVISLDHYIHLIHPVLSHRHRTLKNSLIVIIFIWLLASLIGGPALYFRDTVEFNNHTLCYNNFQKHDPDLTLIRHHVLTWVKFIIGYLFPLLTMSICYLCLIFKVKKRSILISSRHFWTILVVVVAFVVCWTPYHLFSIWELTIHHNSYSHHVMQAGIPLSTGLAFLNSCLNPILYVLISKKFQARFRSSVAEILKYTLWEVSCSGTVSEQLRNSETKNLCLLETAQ
Chain of GPR1 (Tango construct) (human) (P46091 whole entry): as above
T6 sequence (O43193 whole entry): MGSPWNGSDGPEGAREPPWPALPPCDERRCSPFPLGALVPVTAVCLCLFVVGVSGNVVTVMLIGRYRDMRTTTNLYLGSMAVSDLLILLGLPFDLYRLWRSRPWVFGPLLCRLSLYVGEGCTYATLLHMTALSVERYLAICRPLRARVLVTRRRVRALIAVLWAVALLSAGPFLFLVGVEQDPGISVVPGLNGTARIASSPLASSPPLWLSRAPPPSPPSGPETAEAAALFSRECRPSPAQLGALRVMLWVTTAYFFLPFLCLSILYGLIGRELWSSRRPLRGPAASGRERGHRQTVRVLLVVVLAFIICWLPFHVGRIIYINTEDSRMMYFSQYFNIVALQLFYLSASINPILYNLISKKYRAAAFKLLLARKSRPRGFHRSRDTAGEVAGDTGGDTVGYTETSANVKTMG
Chain of GPR55 (Q9Y2T6 whole entry): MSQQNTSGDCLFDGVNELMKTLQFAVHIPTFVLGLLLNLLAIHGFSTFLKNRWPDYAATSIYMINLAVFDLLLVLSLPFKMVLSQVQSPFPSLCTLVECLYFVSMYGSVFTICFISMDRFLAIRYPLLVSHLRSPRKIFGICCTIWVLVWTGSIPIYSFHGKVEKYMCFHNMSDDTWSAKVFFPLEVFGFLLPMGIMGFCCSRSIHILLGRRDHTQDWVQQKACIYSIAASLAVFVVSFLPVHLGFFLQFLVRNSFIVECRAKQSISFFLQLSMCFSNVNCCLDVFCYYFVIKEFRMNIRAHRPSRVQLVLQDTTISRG

Compound: CSCC[C@H](NC(=O)[C@H](Cc1ccccc1)NC(=O)CNC(=O)CNC(=O)[C@@H](N)Cc1ccc(O)cc1)C(=O)N[C@@H](CCCNC(=N)N)C(=O)N[C@@H](CCCNC(=N)N)C(=O)N[C@H](C(=O)NCC(=O)N[C@@H](CCCNC(=N)N)C(=O)N1CCC[C@H]1C(=O)N[C@@H](CCC(=O)O)C(=O)N[C@@H](Cc1c[nH]c2ccccc12)C(=O)N[C@@H](Cc1c[nH]c2ccccc12)C(=O)N[C@@H](CCSC)C(=O)N[C@@H](CC(=O)O)C(=O)N[C@@H](Cc1ccc(O)cc1)C(=O)N[C@@H](CCC(N)=O)C(=O)N[C@@H](CCCCN)C(=O)N[C@@H](CCCNC(=N)N)C(=O)N[C@@H](Cc1ccc(O)cc1)C(=O)NCC(=O)NCC(=O)N[C@@H](Cc1ccccc1)C(=O)N[C@@H](CC(C)C)C(=O)O)C(C)C [Peptide 158, Peptide E] (H-YGGFMRRVGRPEWWMDYQKRYGGFL-OH)
- EC50 (BB3 [1]): > 10 µM
- EC50 (BB3 [1]; pEC50, DMR (peak), BB3, mean, SEM and n): 72.4 µM
- Emax, Internalization (AUC) (BB3 [2]): 16.0
- EC50 (BB3 [3]; BB3, mean, SEM and n, read-out: pEC50, Tango (fold over basal) (converted)): 93.3 µM
- EC50 (BB3 [3]; HTLA cells transiently transfected, overnight stimulation, luciferase, mean ± SEM of 3-4 independent experiments in triplicate, read-out: pEC50, β-arrestin recruitment (Tango), BB3 (converted)): > 10 µM
- Emax, IP1 (BB3 [4]): 164.0 nM
- EC50 (BB3 [4]; pEC50, IP1 (nM)): 6760 nM
- Confirmation of known target in Tango [5]: kappa, mu
- Emax, Tango (fold over basal) (OPRK1; n = 3): 5.0 fold over basal
- EC50 (OPRK1; n = 3, read-out: pEC50, Tango (fold over basal) (converted)): 1.35 µM

Compound: Nc1nc(NCc2ccccc2)nc(-c2ccccc2CO)n1 [ZINC67740571 (ogerin)]
- Comment (response in DMR / internalization assays) (GPR68): Robust response in DMR, no response in internalization assay
- Active in DMR/internalization (GPR68; reported ligand tested on receptor-expressing cell line): Yes (DMR)

Compound: KGGFSFRF [Peptide 31]
- Comment, Tango (fold over basal) (NPY5): Response >1uM; part of QRFP43
- Emax, Tango (fold over basal) (GPR183): 1.7 fold over basal
- pEC50, Tango (fold over basal) (GPR183): 8.61

Compound: Motilin
- Confirmed? (confirmation of b-arrestin recruitment) (MLNR): Yes

Compound: NWTPQAMLYLKGAQ [Peptide 95]
- Emax, Tango (fold over basal) (GPR161): 1.4 fold over basal
- pEC50, Tango (fold over basal) (GPR161): 6.57

Compound: Neuropeptide S (SFRNGVGTGMKKTSFQRAKS)
- Confirmed? (confirmation of b-arrestin recruitment) (NPS): No

Compound: Neurotensin
- Confirmed? (confirmation of b-arrestin recruitment) (NTSR2): No
- Confirmed? (confirmation of b-arrestin recruitment) (NTSR1; Tango): Yes
- Notes (b-arrestin recruitment response) (NTSR1; validation): Neurotensin not cyclized; weak activation in validation

Compound: Nociceptin/orphanin FQ
- Confirmed? (confirmation of b-arrestin recruitment) (OPRL1): Yes

Compound: Orexin-B
- Confirmed? (confirmation of b-arrestin recruitment) (HCTR2): Yes

Compound: PACAP27 (peptide)
- pEC50 at GPR55 (internalization or mass redistribution; assay not given) (GPR55): 9.51 pEC50

Compound: Pancreatic hormone (PH)
- Confirmed? (confirmation of b-arrestin recruitment) (NPY4R): No

Compound: Peptide 141 (Osteocrin_(-2-19))
- pEC50 in PathHunter β-arrestin recruitment assay (GPR1 (PathHunter cells)): 6.18 pEC50
- pEC50 in Tango β-arrestin recruitment assay [6]: 5.6 pEC50

Compound: Peptide YY (PYY)
- Confirmed? (confirmation of b-arrestin recruitment) (NPY4R): No

Compound: PrRP-31
- Confirmed? (confirmation of b-arrestin recruitment) (PRRP; endogenous ligand(s) included in peptide library, Tango): Yes
- Notes (b-arrestin recruitment response) (PRRP; screen and validation): No response in screen, small response in validation
- pKi_value (human GPCRs): 9.2

Compound: RHVNHSATEALGELRERAPGQGTNGFQLLRHAV [Peptide 192]
- Emax, Tango (fold over basal) (GPR17): 1.3 fold over basal
- pEC50, Tango (fold over basal) (GPR17): 9.08

Compound: SFRNGVGSGVKKTSF [Peptide 107]
- Emax, Tango (fold over basal) (NPSR): 2.2 fold over basal
- pEC50, Tango (fold over basal) (NPSR): 6.03

Compound: TLGPQAHSLALQSVDLLFRP [Peptide 132]
- Emax, Tango (fold over basal) (NOP (OPRL1)): 8.8 fold over basal
- pEC50, Tango (fold over basal) (NOP (OPRL1)): 4.82

Compound: VLDQLSA [Peptide 25]
- Emax, Tango (fold over basal) (OPRD1): 5.0 fold over basal
- pEC50, Tango (fold over basal) (OPRD1): 5.58
